Data taken from patent publication US20150284375A1 (AJINOMOTO CO., INC., priority 2012, published 2015).
pIC50: −log10 of the molar value.

The compounds below were run against T1, human TRPA1 (Homo sapiens, UniProt O75762) (assay: Measurement of TRPA1 antagonist activity (intracellular calcium increase, FLIPR, allylisothiocyanate stimulation)). Conditions: allylisothiocyanate 20 μM stimulation, FLIPR calcium assay; read-out: antagonism hTRPA1.
T1 construct: expressed in transfected cells; host or cells: Human embryonic kidney-derived 293T cells, transiently transfected with the pcDNA3.1/zeo(+) human TRPA1 plasmid
T1 sequence (O75762 whole entry): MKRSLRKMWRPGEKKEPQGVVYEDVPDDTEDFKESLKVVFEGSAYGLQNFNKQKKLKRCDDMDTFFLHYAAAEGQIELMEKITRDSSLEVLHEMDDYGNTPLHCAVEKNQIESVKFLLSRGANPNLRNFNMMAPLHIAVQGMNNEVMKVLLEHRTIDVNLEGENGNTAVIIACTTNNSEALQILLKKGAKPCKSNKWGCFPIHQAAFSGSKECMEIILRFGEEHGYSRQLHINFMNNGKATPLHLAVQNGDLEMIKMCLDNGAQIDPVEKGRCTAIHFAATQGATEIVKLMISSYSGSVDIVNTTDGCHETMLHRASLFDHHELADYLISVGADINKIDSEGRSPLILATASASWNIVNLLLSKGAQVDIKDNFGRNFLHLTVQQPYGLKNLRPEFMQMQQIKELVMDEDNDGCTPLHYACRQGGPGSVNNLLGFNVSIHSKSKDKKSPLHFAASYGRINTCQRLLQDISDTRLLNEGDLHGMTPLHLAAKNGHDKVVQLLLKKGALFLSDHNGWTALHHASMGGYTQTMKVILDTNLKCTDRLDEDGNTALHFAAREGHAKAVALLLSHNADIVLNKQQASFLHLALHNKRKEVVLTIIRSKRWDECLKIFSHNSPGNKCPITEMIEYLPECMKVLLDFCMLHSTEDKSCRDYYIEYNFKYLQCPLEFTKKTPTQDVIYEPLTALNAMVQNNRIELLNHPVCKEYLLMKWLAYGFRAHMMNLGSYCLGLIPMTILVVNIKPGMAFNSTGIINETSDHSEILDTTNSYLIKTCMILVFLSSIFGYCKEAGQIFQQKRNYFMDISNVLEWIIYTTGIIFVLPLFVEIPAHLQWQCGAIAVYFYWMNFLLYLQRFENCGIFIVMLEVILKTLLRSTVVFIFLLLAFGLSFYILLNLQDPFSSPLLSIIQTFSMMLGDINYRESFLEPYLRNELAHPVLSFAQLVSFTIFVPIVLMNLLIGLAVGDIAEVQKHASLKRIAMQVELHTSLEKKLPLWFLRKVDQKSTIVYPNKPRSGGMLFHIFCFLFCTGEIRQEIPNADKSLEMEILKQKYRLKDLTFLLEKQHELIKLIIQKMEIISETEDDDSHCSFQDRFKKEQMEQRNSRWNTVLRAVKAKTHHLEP
Assay type: cell-based
In short: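 IC50 derives from a sigmoid fit of inhibition of the 5-min FLIPR fluorescence change evoked by 20 μM allylisothiocyanate, normalized between agonist and buffer responses. Test substance, diluted in HBSS/20 mM HEPES pH 7.2 plus 0.1% BSA, was applied 10 min beforehand at room temperature to Calcium4-loaded 293T cells transiently expressing human TRPA1.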
In the case of `O=C(NCc1cccc(Oc2ccnc(C(F)(F)F)c2)c1)[C@@H]1CCCN1S(=O)(=O)c1ccc(F)cc1` [Example 114, (2S)-1-(4-fluorophenyl)sulfonyl-N-[[3-[[2-(trifluoromethyl)-4-pyridyl]oxy]phenyl]methyl]pyrrolidine-2-carboxamide], the pIC50 was 6.24.
`O=C(NCc1cccc(Oc2ccc(C(F)(F)F)nc2)c1)[C@@H]1CCCN1S(=O)(=O)c1ccc(F)cc1` [Example 115, (2S)-1-(4-fluorophenyl)sulfonyl-N-[[3-[[6-(trifluoromethyl)-3-pyridyl]oxy]phenyl]methyl]pyrrolidine-2-carboxamide] gave a pIC50 of 6.68.
`CN(C)c1cccc(Oc2cccc(CNC(=O)[C@@H]3CCCN3S(=O)(=O)c3ccc(F)cc3)c2)c1` [Example 116, (2S)-N-[[3-[3-(dimethylamino)phenoxy]phenyl]methyl]-1-(4-fluorophenyl)sulfonyl-pyrrolidine-2-carboxamide] showed a pIC50 of 5.89.
Compound `CN(C)c1ccc(Oc2cccc(CNC(=O)[C@@H]3CCCN3S(=O)(=O)c3ccc(F)cc3)c2)cc1` [Example 117, (2S)-N-[[3-[4-(dimethylamino)phenoxy]phenyl]methyl]-1-(4-fluorophenyl)sulfonyl-pyrrolidine-2-carboxamide] has a pIC50 of 5.00.
Compound `N#Cc1ccc(Oc2cccc(CNC(=O)[C@@H]3CCCN3S(=O)(=O)c3ccc(F)cc3)c2)cc1` [Example 118, (2S)-N-[[3-(4-cyanophenoxy)phenyl]methyl]-1-(4-fluorophenyl)sulfonyl-pyrrolidine-2-carboxamide] has a pIC50 of 6.57.
For `CC(C)(C)c1ccc(Oc2cccc(CNC(=O)[C@@H]3CCCN3S(=O)(=O)c3ccc(F)cc3)c2)cc1` [Example 119, (2S)-N-[[3-(4-tert-butylphenoxy)phenyl]methyl]-1-(4-fluorophenyl)sulfonyl-pyrrolidine-2-carboxamide], the pIC50 was 6.00.
Work on `O=C(NCc1cccc(OCc2ccc(Cl)cc2)c1)[C@@H]1CCCN1S(=O)(=O)c1ccc(F)cc1` [Example 120, (2S)-N-[[3-[(4-chlorophenyl)methoxy]phenyl]methyl]-1-(4-fluorophenyl)sulfonyl-pyrrolidine-2-carboxamide] yielded a pIC50 of 7.77.
Compound `O=C(NCc1cccc(OCc2ccc(F)cc2)c1)[C@@H]1CCCN1S(=O)(=O)c1ccc(F)cc1` [Example 121, (2S)-N-[[3-[(4-fluorophenyl)methoxy]phenyl]methyl]-1-(4-fluorophenyl)sulfonyl-pyrrolidine-2-carboxamide] has a pIC50 of 7.51.
`CC(C)(C)c1ccc(COc2cccc(CNC(=O)[C@@H]3CCCN3S(=O)(=O)c3ccc(F)cc3)c2)cc1` [Example 122] gave a pIC50 of 6.36.
`O=C(NCc1cccc(OCc2cccc(C(F)(F)F)c2)c1)[C@@H]1CCCN1S(=O)(=O)c1ccc(F)cc1` [Example 123, (2S)-1-(4-fluorophenyl)sulfonyl-N-[[3-[[3-(trifluoromethyl)phenyl]methoxy]phenyl]methyl]pyrrolidine-2-carboxamide] was tested, and the pIC50 was 7.60.
With `COc1cccc(COc2cccc(CNC(=O)[C@@H]3CCCN3S(=O)(=O)c3ccc(F)cc3)c2)c1` [Example 124, (2S)-1-(4-fluorophenyl)sulfonyl-N-[[3-[(3-methoxyphenyl)methoxy]phenyl]methyl]pyrrolidine-2-carboxamide] the pIC50 was 6.89.
`CN(C)c1cccc(COc2cccc(CNC(=O)[C@@H]3CCCN3S(=O)(=O)c3ccc(F)cc3)c2)c1` [Example 125, (2S)-N-[[3-[[3-(dimethylamino)phenyl]methoxy]phenyl]methyl]-1-(4-fluorophenyl)sulfonyl-pyrrolidine-2-carboxamide] showed a pIC50 of 7.42.
`O=C(NCc1cccc(OCc2cccc(N3CCCCC3)c2)c1)[C@@H]1CCCN1S(=O)(=O)c1ccc(F)cc1` [Example 126, (2S)-1-(4-fluorophenyl)sulfonyl-N-[[3-[[3-(1-piperidyl)phenyl]methoxy]phenyl]methyl]pyrrolidine-2-carboxamide] was tested, and the pIC50 was 7.42.
For `O=C(NCc1cccc(OCc2cccc(N3CCOCC3)c2)c1)[C@@H]1CCCN1S(=O)(=O)c1ccc(F)cc1` [Example 127, (2S)-1-(4-fluorophenyl)sulfonyl-N-[[3-[(3-morpholinophenyl)methoxy]phenyl]methyl]pyrrolidine-2-carboxamide], the pIC50 was 6.89.
In the case of `O=C(NCc1cccc(OCc2ccccc2F)c1)[C@@H]1CCCN1S(=O)(=O)c1ccc(F)cc1` [Example 128, (2S)-N-[[3-[(2-fluorophenyl)methoxy]phenyl]methyl]-1-(4-fluorophenyl)sulfonyl-pyrrolidine-2-carboxamide], the pIC50 was 6.92.
For `CN(C)c1ccccc1COc1cccc(CNC(=O)[C@@H]2CCCN2S(=O)(=O)c2ccc(F)cc2)c1` [Example 129, (2S)-N-[[3-[[2-(dimethylamino)phenyl]methoxy]phenyl]methyl]-1-(4-fluorophenyl)sulfonyl-pyrrolidine-2-carboxamide], the pIC50 was 6.19.
In the case of `O=C(NCc1cccc(OCc2ccc(F)c(F)c2)c1)[C@@H]1CCCN1S(=O)(=O)c1ccc(F)cc1` [Example 130, (2S)-N-[[3-[(3,4-difluorophenyl)methoxy]phenyl]methyl]-1-(4-fluorophenyl)sulfonyl-pyrrolidine-2-carboxamide], the pIC50 was 7.70.
`O=C(NCc1cccc(OCc2ccc(Cl)c(F)c2)c1)[C@@H]1CCCN1S(=O)(=O)c1ccc(F)cc1` [Example 131, (2S)-N-[[3-[(4-chloro-3-fluoro-phenyl)methoxy]phenyl]methyl]-1-(4-fluorophenyl)sulfonyl-pyrrolidine-2-carboxamide] was tested, and the pIC50 was 7.85.
For `O=C(NCc1cccc(OCc2cccnc2)c1)[C@@H]1CCCN1S(=O)(=O)c1ccc(F)cc1` [Example 132, (2S)-1-(4-fluorophenyl)sulfonyl-N-[[3-(3-pyridylmethoxy)phenyl]methyl]pyrrolidine-2-carboxamide], the pIC50 was 5.59.
`O=C(NCc1cccc(OCc2ccncc2)c1)[C@@H]1CCCN1S(=O)(=O)c1ccc(F)cc1` [Example 133, (2S)-1-(4-fluorophenyl)sulfonyl-N-[[3-(4-pyridylmethoxy)phenyl]methyl]pyrrolidine-2-carboxamide] was tested, and the pIC50 was 5.36.
With `O=C(NCc1cccc(OCc2ccc(C(F)(F)F)nc2)c1)[C@@H]1CCCN1S(=O)(=O)c1ccc(F)cc1` [Example 134, (2S)-1-(4-fluorophenyl)sulfonyl-N-[[3-[[6-(trifluoromethyl)-3-pyridyl]methoxy]phenyl]methyl]pyrrolidine-2-carboxamide] the pIC50 was 7.42.
With `O=C(NCc1cccc(OCc2ccnc(C(F)(F)F)c2)c1)[C@@H]1CCCN1S(=O)(=O)c1ccc(F)cc1` [Example 135, (2S)-1-(4-fluorophenyl)sulfonyl-N-[[3-[[2-(trifluoromethyl)-4-pyridyl]methoxy]phenyl]methyl]pyrrolidine-2-carboxamide] the pIC50 was 7.17.
In the case of `O=C(NCc1cccc(OCc2cccc(C(F)(F)F)n2)c1)[C@@H]1CCCN1S(=O)(=O)c1ccc(F)cc1` [Example 136, (2S)-1-(4-fluorophenyl)sulfonyl-N-[[3-[[6-(trifluoromethyl)-2-pyridyl]methoxy]phenyl]methyl]pyrrolidine-2-carboxamide], the pIC50 was 6.85.
`O=C(NCc1cccc(OCc2cncc(C(F)(F)F)c2)c1)[C@@H]1CCCN1S(=O)(=O)c1ccc(F)cc1` [Example 137, (2S)-1-(4-fluorophenyl)sulfonyl-N-[[3-[[5-(trifluoromethyl)-3-pyridyl]methoxy]phenyl]methyl]pyrrolidine-2-carboxamide] was tested, and the pIC50 was 7.36.
`O=C(NCc1cccc(OCc2cncc(Cl)c2)c1)[C@@H]1CCCN1S(=O)(=O)c1ccc(F)cc1` [Example 138, (2S)-N-[[3-[(5-chloro-3-pyridyl)methoxy]phenyl]methyl]-1-(4-fluorophenyl)sulfonyl-pyrrolidine-2-carboxamide] was tested, and the pIC50 was 6.96.
Work on `O=C(NCc1cccc(OCc2ccoc2)c1)[C@@H]1CCCN1S(=O)(=O)c1ccc(F)cc1` [Example 139, (2S)-1-(4-fluorophenyl)sulfonyl-N-[[3-(3-furylmethoxy)phenyl]methyl]pyrrolidine-2-carboxamide] yielded a pIC50 of 6.54.
Compound `O=C(NCc1cccc(OCc2ccco2)c1)[C@@H]1CCCN1S(=O)(=O)c1ccc(F)cc1` [Example 140, (2S)-1-(4-fluorophenyl)sulfonyl-N-[[3-(2-furylmethoxy)phenyl]methyl]pyrrolidine-2-carboxamide] has a pIC50 of 6.48.
`O=C(NCc1cccc(OCc2ccsc2)c1)[C@@H]1CCCN1S(=O)(=O)c1ccc(F)cc1` [Example 141, (2S)-1-(4-fluorophenyl)sulfonyl-N-[[3-(3-thienylmethoxy)phenyl]methyl]pyrrolidine-2-carboxamide] was tested, and the pIC50 was 7.05.
`O=C(NCc1cccc(OCc2cccs2)c1)[C@@H]1CCCN1S(=O)(=O)c1ccc(F)cc1` [Example 142, (2S)-1-(4-fluorophenyl)sulfonyl-N-[[3-(2-thienylmethoxy)phenyl]methyl]pyrrolidine-2-carboxamide] showed a pIC50 of 6.96.
For `C[C@H](Oc1cccc(CNC(=O)[C@@H]2CCCN2S(=O)(=O)c2ccc(F)cc2)c1)c1ccccc1` [Example 144, (2S)-1-(4-fluorophenyl)sulfonyl-N-[[3-[(1S)-1-phenylethoxy]phenyl]methyl]pyrrolidine-2-carboxamide], the pIC50 was 6.26.
`C[C@@H](Oc1cccc(CNC(=O)[C@@H]2CCCN2S(=O)(=O)c2ccc(F)cc2)c1)c1ccccn1` [Example 146, (2S)-1-(4-fluorophenyl)sulfonyl-N-[[3-[(1R)-1-(2-pyridyl)ethoxy]phenyl]methyl]pyrrolidine-2-carboxamide] was tested, and the pIC50 was 5.01.
For `C[C@H](Oc1cccc(CNC(=O)[C@@H]2CCCN2S(=O)(=O)c2ccc(F)cc2)c1)c1ccccn1` [Example 147, (2S)-1-(4-fluorophenyl)sulfonyl-N-[[3-[(1S)-1-(2-pyridyl)ethoxy]phenyl]methyl]pyrrolidine-2-carboxamide], the pIC50 was 5.08.
For `O=C(NCc1cccc(OCCc2ccccc2)c1)[C@@H]1CCCN1S(=O)(=O)c1ccc(F)cc1` [Example 148, (2S)-1-(4-fluorophenyl)sulfonyl-N-[(3-phenethyloxyphenyl)methyl]pyrrolidine-2-carboxamide], the pIC50 was 6.47.
